Assay results as given in PubChem BioAssay (NCI).
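48-hour exposure; five concentrations; linearly interpolated endpoints. At the GI50, growth is halved. TGI: total growth inhibition.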

Columns and labels:
Experiment in all cases: DTP human tumour cell line panel, 48 h
[1] = test system: HOP-62 NSCLC
[2] = test system: HCT-15 colon
[3] = test system: SN12C renal
[4] = test system: SNB-19 CNS
[5] = test system: SNB-75 CNS
[6] = test system: SF-268 CNS
[7] = test system: U251 CNS
[8] = test system: SF-295 CNS
[9] = test system: M14 melanoma
[10] = test system: SK-MEL-5 melanoma
[11] = test system: DU-145 prostate
[12] = test system: NCI-H23 lung
[13] = test system: NCI-H522 lung
[14] = test system: SW-620 colon
[15] = test system: UACC-62 melanoma
[16] = test system: OVCAR-3 ovarian
[17] = test system: NCI/ADR-RES ovarian
[18] = test system: HCT-116 colon
[19] = test system: MOLT-4 leukemia
[20] = test system: T-47D breast
[21] = test system: RPMI-8226 leukemia
[22] = test system: SK-MEL-28 melanoma
[23] = test system: CAKI-1 renal
[24] = test system: HOP-92 NSCLC
[25] = test system: HL-60(TB) leukemia
[26] = test system: MALME-3M melanoma
[27] = test system: UO-31 renal
[28] = test system: NCI-H460 lung
[29] = test system: OVCAR-5 ovarian
[30] = test system: IGROV1 ovarian
[31] = test system: K-562 leukemia
[32] = test system: NCI-H226 lung
[33] = test system: 786-0 renal
[34] = test system: OVCAR-8 ovarian
[35] = test system: MDA-MB-435
[36] = test system: MDA-MB-231 breast
[37] = test system: COLO 205 colon
[38] = test system: BT-549 breast
[39] = test system: KM12 colon
[40] = test system: ACHN renal
[41] = test system: EKVX NSCLC
[42] = test system: MCF7 breast
[43] = test system: SF-539 CNS
[44] = test system: A549 NSCLC
[45] = test system: CCRF-CEM leukemia
[46] = test system: PC-3 prostate
[47] = test system: HS 578T breast
[48] = test system: SK-MEL-2 melanoma
[49] = test system: LOX IMVI melanoma
[50] = test system: TK-10 renal
[51] = test system: SK-OV-3 ovarian
[52] = test system: HCC-2998 colon
[53] = test system: HT29 colon
[54] = test system: OVCAR-4 ovarian
[55] = test system: SR leukemia
[56] = test system: A498 renal

C=C1C[C@@H]2[C@H](CC[C@]3(C)C(=O)CC[C@@H]23)[C@@]2(C)C=CC(=O)C=C12
GI50 [1]: 35.2 µM
TGI [1]: > 83.1 µM
GI50 [2]: 10 µM
TGI [2]: 34.3 µM
GI50 [3]: 21 µM
TGI [3]: > 63.5 µM
GI50 [4]: > 58.8 µM
TGI [4]: > 100 µM
GI50 [5]: 30 µM
TGI [5]: > 100 µM
GI50 [6]: 57.1 µM
TGI [6]: > 100 µM
GI50 [7]: 23.5 µM
TGI [7]: > 70.5 µM
GI50 [8]: 28.5 µM
TGI [8]: 74.5 µM
GI50 [9]: 20.4 µM
TGI [9]: > 48.7 µM
GI50 [10]: 7.5 µM
TGI [10]: 33.7 µM
GI50 [11]: > 65.8 µM
TGI [11]: > 100 µM
GI50 [12]: 16.5 µM
TGI [12]: 44.3 µM
GI50 [13]: 8.79 µM
TGI [13]: > 38.8 µM
GI50 [14]: 34.7 µM
TGI [14]: > 100 µM
GI50 [15]: 8.11 µM
TGI [15]: 30 µM
GI50 [16]: 26.5 µM
TGI [16]: > 66.3 µM
GI50 [17]: 30.6 µM
TGI [17]: > 92 µM
GI50 [18]: 14.7 µM
TGI [18]: 29.9 µM
GI50 [19]: 25.7 µM
TGI [19]: > 92.6 µM
GI50 [20]: > 51.6 µM
TGI [20]: > 100 µM
GI50 [21]: 19.7 µM
TGI [21]: > 56.6 µM
GI50 [22]: 42.5 µM
TGI [22]: > 100 µM
GI50 [23]: > 55.9 µM
TGI [23]: > 100 µM
GI50 [24]: > 100 µM
TGI [24]: > 100 µM
GI50 [25]: 26 µM
TGI [25]: > 63.4 µM
GI50 [26]: > 43.9 µM
TGI [26]: > 73.4 µM
GI50 [27]: 22 µM
TGI [27]: > 56.5 µM
GI50 [28]: 22 µM
TGI [28]: > 63.2 µM
GI50 [29]: 37.3 µM
TGI [29]: > 100 µM
GI50 [30]: 34.4 µM
TGI [30]: > 100 µM
GI50 [31]: > 59.8 µM
TGI [31]: > 100 µM
GI50 [32]: 20.2 µM
TGI [32]: > 60 µM
GI50 [33]: 36.9 µM
TGI [33]: > 100 µM
GI50 [34]: 6.93 µM
TGI [34]: > 24 µM
GI50 [35]: 26.3 µM
TGI [35]: > 81.5 µM
GI50 [36]: 35 µM
TGI [36]: > 100 µM
GI50 [37]: 20.3 µM
TGI [37]: 41 µM
GI50 [38]: 28.9 µM
TGI [38]: > 100 µM
GI50 [39]: 30.7 µM
TGI [39]: > 70 µM
GI50 [40]: 23.5 µM
TGI [40]: 54.3 µM
GI50 [41]: > 59.2 µM
TGI [41]: > 100 µM
GI50 [42]: 14.6 µM
TGI [42]: > 62.2 µM
GI50 [43]: 25.2 µM
TGI [43]: 74.4 µM
GI50 [44]: 11.5 µM
TGI [44]: > 51.8 µM
GI50 [45]: 24.5 µM
TGI [45]: > 74.9 µM
GI50 [46]: 66.9 µM
TGI [46]: > 100 µM
GI50 [47]: 25.1 µM
TGI [47]: > 77.2 µM
TGI [48]: > 28.3 µM
GI50 [49]: 19.2 µM
TGI [49]: 45.5 µM
GI50 [50]: 48.1 µM
TGI [50]: > 100 µM
GI50 [51]: 39.1 µM
TGI [51]: > 100 µM
GI50 [52]: 18.1 µM
TGI [52]: 33.5 µM
GI50 [53]: 37.1 µM
TGI [53]: > 100 µM
GI50 [54]: 42.7 µM
TGI [54]: > 100 µM
GI50 [55]: > 54.4 µM
TGI [55]: > 79.9 µM
GI50 [56]: > 50.8 µM
TGI [56]: > 90.3 µM
